This series concerns female rats. Nature of the series: Subcutaneous administration to female rats: GH effects and anti-peptide antibody. The class given is in vivo.

Where no end group is shown, it is not given here.

“Ac-GTSDRVYEKLAGSKNFFWKTFTSS [P7, Acetyl-GTSDRVYEKLAGSKNFFWKTFTSS]”: the anti-peptide antibody induction result was “without inducing, nevertheless, anti-peptide antibody”.

For the origin of these results see patent US9657080B2, “Methods for treating diseases with peptides that inhibit IGF-1” (Universite Pierre et Marie Curie (Paris 6), priority 2009, dated 2017).
